Measured values taken from patent US6488912B1, “Treatment of dentoalveolar infections with taurolidine and/or taurultam” (Ed. Geistlich Soehne AG fuer Chemische Industrie, priority 1992, dated 2002).

Key:
[1] = tested on: human desmodontal fibroblasts; conditions: cited from earlier work
[2] = tested on: Abscess; assay: Controlled clinical trial, total treatment time to complete remission: abscess; format: in vivo, patients; conditions: TAUR: T-Irrigation fluid 3% + T-Dental emulsion 3%, STANDARD: NaCl 0.9% + AUREOMYCIN Ointment 3%, n=100 per group
Protocol: (§1) The in-vivo tests were carried out at the Clinic for Maxillofacial Surgery, Munich University between 1989 and 1992. In accordance with modern biometric principles the study was planned as a controlled clinical trial, i.e. it was conducted according to a prospective, protective, randomized, monocentre and simple blind design.
(§2) The test substances investigated were 4 different galenic presentation forms of the active component taurolidine and 4 conventional finished pharmaceuticals.
(§3) For each of the 6 indications investigated an exact therapeutic procedure was fixed. The surgical management was carried out according to the individual situation in the usual manner. Tables 1 and 2 show the antimicrobial therapy regimens defined for patient groups A (Taurolidine group) and B (Standard group). It is evident, that the only difference, with the same quantity of substance applied in the same form, was the choice of preparation.
(§4) For critical examination of the effectiveness of the different pharmaceuticals concerning therapeutic success and total treatment time clinical parameters reflecting the progress of recovery were controlled and documented at every session. The following 6 target variables were defined and evaluated by a uniform scale (0=none to 4=very strong):
(§5) The score-level 5 (total) was given at the moment of complete remission and describes consequently the final point of treatment.
(§6) 200 cases were treated in each indication group, the total number amounted to 1,200. The distribution into the two therapy regimens was realised by random sampling. Statistical evaluations were made by means of testing methods described in customary literature.

[3] = tested on: dentoalveolar infections; assay: Controlled clinical trial, taurolidine vs conventional therapy, all 6 indications pooled: target variables; format: in vivo, patients
Protocol: as §1
The following 6 indications examined were selected specifically on the basis of their incidence and clinical relevance.
as §2, §3, §4, §5, §6

[4] = tested on: Gangrene; assay: Controlled clinical trial, total treatment time to complete remission: gangrene; format: in vivo, patients; conditions: TAUR: T-Irrigation fluid 3% + T-Liquid gel 3%, STANDARD: H2O2 3% + CHKM Solution, n=100 per group
Protocol: as §1, §2, §3, §4, §5, §6

[5] = tested on: Parodontitis marginalis; assay: Controlled clinical trial, total treatment time to complete remission: parodontitis; format: in vivo, patients; conditions: TAUR: T-Liquid gel 3% + T-Dental emulsion 3%, STANDARD: DONTISOLON Ointment M, n=100 per group
Protocol: as §1, §2, §3, §4, §5, §6

[6] = tested on: Alveolitis sicca dolorose; assay: Controlled clinical trial, total treatment time to complete remission: alveolitis; format: in vivo, patients; conditions: TAUR: T-Irrigation fluid 3% + T-Dental emulsion 3%, STANDARD: NaCl 0.9% + AUREOMYCIN Ointment 3%, n=100 per group
Protocol: as §1, §2, §3, §4, §5, §6

[7] = tested on: Infection Prophylaxis; assay: Controlled clinical trial, total treatment time to complete remission: infection prophylaxis; format: in vivo, patients; conditions: TAUR: T-Dental gel 2%, STANDARD: CHLORHEXAMED Dental gel 1%, n=100 per group
Protocol: as §1, §2, §3, §4, §5, §6

[8] = tested on: Pericoronitis; assay: Controlled clinical trial, total treatment time to complete remission: pericoronitis; format: in vivo, patients; conditions: TAUR: T-Irrigation fluid 3% + T-Dental emulsion 3%, STANDARD: NaCl 0.9% + AUREOMYCIN Ointment 3%, n=100 per group
Protocol: as §1, §2, §3, §4, §5, §6

[9] = background statement; cited from earlier work
[10] = all 6 indications, n=600 per group, maximum
[11] = all 6 indications, n=600 per group, mean
[12] = all 6 indications, n=600 per group, minimum

## [H]/N=C(\N/C(=N/[H])NCCCCCCNC(=N)NC(=N)Nc1ccc(Cl)cc1)Nc1ccc(Cl)cc1 [Chlorhexidine]
[1]
  cell damage: accelerated ageing and a cytopathological effect

## O=S1(=O)CCN(CN2CCS(=O)(=O)NC2)CN1 [TAUR, taurolidine]
[2]; maximum
  ABSCESS, total treatment TIME (remission), Maximum: 13 days
[2]; mean
  ABSCESS, total treatment TIME (remission), Mean: 5.5 days
[2]; minimum
  ABSCESS, total treatment TIME (remission), Minimum: 2 days
[3]; [10]
  PAIN TIME, Maximum: 14 days
  PERCUSSION TIME, Maximum: 13 days
  PRESSURE PAIN TIME, Maximum: 15 days
  SECRETION TIME, Maximum: 15 days
  SWELLING TIME, Maximum: 14 days
[3]; [11]
  PERCUSSION TIME, Mean: 1.9 days
  PRESSURE PAIN TIME, Mean: 5.3 days
  SECRETION TIME, Mean: 3.9 days
  SWELLING TIME, Mean: 4.5 days
[3]; [12]
  PAIN TIME, Minimum: 1 days
  PERCUSSION TIME, Minimum: 1 days
  PRESSURE PAIN TIME, Minimum: 1 days
  SECRETION TIME, Minimum: 1 days
  SWELLING TIME, Minimum: 1 days
[3]; all 6 indications, p<0.0001
  effectiveness against standard therapy (more rapid recovery): superior effectiveness
[3]; during the acute period of inflammation
  side effects after application: slight pain for some minutes after application
[3]; taurolidine group vs standard group, p=0.007 resp. p=0.01
  optional antibiotics and analgetics required/administered: significantly less
[3]; taurolidine vs conventional treatment
  pain-free earlier than under conventional treatment (average): 2 days
[4]; maximum
  GANGRENE, total treatment TIME (remission), Maximum: 10 days
[4]; mean
  GANGRENE, total treatment TIME (remission), Mean: 5.0 days
[4]; minimum
  GANGRENE, total treatment TIME (remission), Minimum: 2 days
[5]; maximum
  PARODONTITIS, total treatment TIME (remission), Maximum: 14 days
[5]; mean
  PARODONTITIS, total treatment TIME (remission), Mean: 5.1 days
[5]; minimum
  PARODONTITIS, total treatment TIME (remission), Minimum: 2 days
[6]; maximum
  ALVEOLITIS, total treatment TIME (remission), Maximum: 15 days
[6]; mean
  ALVEOLITIS, total treatment TIME (remission), Mean: 5.6 days
[6]; minimum
  ALVEOLITIS, total treatment TIME (remission), Minimum: 3 days
[7]; maximum
  INFECT. PROPHYLAXIS, total treatment TIME (remission), Maximum: 13 days
[7]; mean
  INFECT. PROPHYLAXIS, total treatment TIME (remission), Mean: 7.5 days
[7]; minimum
  INFECT. PROPHYLAXIS, total treatment TIME (remission), Minimum: 3 days
[8]; maximum
  PERICORONITIS, total treatment TIME (remission), Maximum: 12 days
[8]; mean
  PERICORONITIS, total treatment TIME (remission), Mean: 5.1 days
[8]; minimum
  PERICORONITIS, total treatment TIME (remission), Minimum: 2 days

## Neomycin
[9]
  allergy rate: 15-30%
